Test results published in patent publication US7722892B2, “Compounds” (Syngenta Crop Protection, Inc., priority 2001, dated 2010).

How the values were obtained:
[1] = system: LOLRI Lolium rigidum (rye grass); assay: Glasshouse weed kill, adjuvant with fluazifop-P-butyl, track sprayer; assay type: in vivo; conditions: adjuvant 0.2% v/v, 21 days after treatment; for Mean Activity (% weed kill) LOLRI: with fluazifop-p-butyl, mean of 3 replicates and 4 rates; for ED90 LOLRI (concentration required to provide 90% weed kill): fluazifop-p-butyl rate, 200 l/ha
Protocol: (§1) An agrochemical composition was prepared containing 0.2% v/v of an adjuvant in a track sprayer containing fluazifop P butyl emulsified at one of four different concentrations. Weeds which had been grown to the 2.3 leaf stage were sprayed using volumes of 200 l/ha. Each sample was replicated three times. The following weed species were tested:— • AVEFA Avena fatua (wild oats) • LOLRI Lolium rigidum (rye grass) • TRZAW Triticum aestivum (wheat) • SETVI Setaria viridis (green foxtails)
(§2) Activity was measured 21 days after treatment and was compared with a standard composition containing only fluazifop-p-butyl. The concentration required to provide 90% weed kill was calculated and is given in TABLE 1 below together with the mean ED90 across the species.
(§3) Further adjuvants of the present invention were tested for activity in combination with fluzifop-p-butyl. Activity (% weed kill) was measured 21 days after treatment and is given as a mean of 3 replicates and 4 rates of fluazifop-p-butyl. All adjuvants were applied at 0.2% v/v. The results are given in Table 2 in comparison with a corresponding composition containing no adjuvant.

[2] = system: AVEFA Avena fatua (wild oats); assay: as above; assay type: in vivo; conditions: adjuvant 0.2% v/v, 21 days after treatment; for Mean Activity (% weed kill) AVEFA: with fluazifop-p-butyl, mean of 3 replicates and 4 rates; for ED90 AVEFA (concentration required to provide 90% weed kill): fluazifop-p-butyl rate, 200 l/ha
Protocol: as §1, §2, §3

[3] = system: SETVI Setaria viridis (green foxtails); assay: as above; assay type: in vivo; conditions: adjuvant 0.2% v/v, 21 days after treatment; for Mean Activity (% weed kill) SETVI: with fluazifop-p-butyl, mean of 3 replicates and 4 rates; for ED90 SETVI (concentration required to provide 90% weed kill): fluazifop-p-butyl rate, 200 l/ha
Protocol: as §1, §2, §3

[4] = system: TRZAW Triticum aestivum (wheat); assay: as above; assay type: in vivo; conditions: adjuvant 0.2% v/v, 21 days after treatment; for Mean Activity (% weed kill) TRZAW: with fluazifop-p-butyl, mean of 3 replicates and 4 rates; for ED90 TRZAW (concentration required to provide 90% weed kill): fluazifop-p-butyl rate, 200 l/ha
Protocol: as §1, §2, §3

[5] = system: AVEFA, LOLRI, TRZAW, SETVI; assay: Weed kill with fluazifop-P-butyl, mean across the species; assay type: in vivo; conditions: adjuvant 0.2% v/v, 21 days after treatment; for Mean Activity (% weed kill) Mean over all species: with fluazifop-p-butyl; for Mean ED90 across the species: fluazifop-p-butyl rate
Protocol: as §1, §2, §3

[6] = system: ALOMY, APESV, AVEFA, LOLMU, PHAPA; assay: Adjuvant with thin leaved grass herbicide, mean of all weeds; assay type: in vivo
Protocol: (§4) The indicated adjuvants were evaluated in combination with a thin leaved grass herbicide 2,2,-dimethyl-propionic acid-8-(2,6-diethyl-4-methyl-phenyl)-9-oxo-1,2,4,5-tetrahydro-9H-pyrazolo[1,2-d][1,4,5]oxadiazepine-7-yl ester. The weeds were sprayed at the growth stages shown in the table with pesticide emulsions using a track sprayer and volumes of 200 l/ha. The adjuvants were added at 5% v/v as tank mix additives. Each result is the average of two replicates.

[7] = system: APESV (Apera Spica-Venti); assay: Adjuvant with thin leaved grass herbicide (oxadiazepine pivalate ester), track sprayer; assay type: in vivo; conditions: 200 l/ha, average of two replicates
Protocol: as §4

[8] = system: PHAPA (Phalaris paradoxa); assay: as above; assay type: in vivo; conditions: 200 l/ha, average of two replicates
Protocol: as §4

LOLMU = assay: as above; assay type: in vivo; conditions: 200 l/ha, average of two replicates
Protocol: as §4

ALOMY = assay: as above; assay type: in vivo; conditions: 200 l/ha, average of two replicates
Protocol: as §4

AVEFA = assay: as above; assay type: in vivo, Avena fatua; conditions: 200 l/ha, average of two replicates
Protocol: as §4

Puccinia recondita = assay: Glasshouse disease control with azoxystrobin on inoculated barley; assay type: in vivo; conditions: adjuvant 0.5% v/v tank mix, four replicates
Protocol: The results quoted are the mean percentage disease control from four replicates on barley inoculated with Puccinia recondita. The adjuvant was added as a 0.5% v/v tank mix.

Substance | Mean Activity (% weed kill) LOLRI [1] [%] | Mean Activity (% weed kill) AVEFA [2] [%] | Mean Activity (% weed kill) SETVI [3] [%] | Mean Activity (% weed kill) TRZAW [4] [%] | Mean Activity (% weed kill) Mean over all species [5] [%] | ED90 LOLRI (concentration required to provide 90% weed kill) [1] [g/ha] | ED90 AVEFA (concentration required to provide 90% weed kill) [2] [g/ha] | ED90 SETVI (concentration required to provide 90% weed kill) [3] [g/ha] | ED90 TRZAW (concentration required to provide 90% weed kill) [4] [g/ha] | Mean ED90 across the species [5] [g/ha] | also measured
Isostearyl (2-hexyl-dodecan-1-ol) 10 Propylene Oxide [Isostearyl 10 PO] | 51.8 | 67.8 | 81.8 | 53.8 | 64 |  |  |  |  |  | 
Oleyl 10 Propylene Oxide [Oleyl 10PO] | 55.9 | 72.6 | 84.6 | 54.3 | 67 |  |  |  |  |  | Mean All Weeds ([6]; herbicide rate 5 gai/ha): 41; Mean All Weeds ([6]; herbicide rate 7.5 gai/ha): 83; Mean All Weeds ([6]; herbicide rate 10 gai/ha): 93; APESV activity ([7]; herbicide rate 5 gai/ha): 23; APESV activity ([7]; herbicide rate 7.5 gai/ha): 89; APESV activity ([7]; herbicide rate 10 gai/ha): 98; PHAPA activity ([8]; herbicide rate 5 gai/ha): 23; PHAPA activity ([8]; herbicide rate 7.5 gai/ha): 98; PHAPA activity ([8]; herbicide rate 10 gai/ha): 99; LOLMU activity (LOLMU; herbicide rate 5 gai/ha): 33; LOLMU activity (LOLMU; herbicide rate 7.5 gai/ha): 60; LOLMU activity (LOLMU; herbicide rate 10 gai/ha): 80; ALOMY activity (ALOMY; herbicide rate 5 gai/ha): 55; ALOMY activity (ALOMY; herbicide rate 7.5 gai/ha): 70; ALOMY activity (ALOMY; herbicide rate 10 gai/ha): 92; AVEFA activity (AVEFA; herbicide rate 5 gai/ha): 70; AVEFA activity (AVEFA; herbicide rate 7.5 gai/ha): 96; AVEFA activity (AVEFA; herbicide rate 10 gai/ha): 98
Oleyl 20 Propylene Oxide End-Capped butyl ether [Oleyl 20P Bu Ether] | 46 | 67.4 | 75.9 | 38.8 | 57 | 48.6 | 23.4 | 19 | 32.2 | 30.8 | 
Isostearyl (2-hexyl-dodecan-1-ol) 20 Propylene Oxide [Isostearyl 20 PO] | 52.5 | 58 | 80.9 | 37.3 | 57 |  |  |  |  |  | 
Oleyl 10 Ethylene Oxide End-Capped Butyl Ether [Oleyl 10 EO Bu ether] | 56.5 | 73.3 | 85.6 | 56 | 68 |  |  |  |  |  | Mean All Weeds ([6]; herbicide rate 5 gai/ha): 76; Mean All Weeds ([6]; herbicide rate 7.5 gai/ha): 93; Mean All Weeds ([6]; herbicide rate 10 gai/ha): 95; APESV activity ([7]; herbicide rate 5 gai/ha): 53; APESV activity ([7]; herbicide rate 7.5 gai/ha): 97; APESV activity ([7]; herbicide rate 10 gai/ha): 98; PHAPA activity ([8]; herbicide rate 5 gai/ha): 93; PHAPA activity ([8]; herbicide rate 7.5 gai/ha): 96; PHAPA activity ([8]; herbicide rate 10 gai/ha): 99; LOLMU activity (LOLMU; herbicide rate 5 gai/ha): 91; LOLMU activity (LOLMU; herbicide rate 7.5 gai/ha): 98; LOLMU activity (LOLMU; herbicide rate 10 gai/ha): 93; ALOMY activity (ALOMY; herbicide rate 5 gai/ha): 53; ALOMY activity (ALOMY; herbicide rate 7.5 gai/ha): 75; ALOMY activity (ALOMY; herbicide rate 10 gai/ha): 88; AVEFA activity (AVEFA; herbicide rate 5 gai/ha): 89; AVEFA activity (AVEFA; herbicide rate 7.5 gai/ha): 98; AVEFA activity (AVEFA; herbicide rate 10 gai/ha): 99
Oleyl 20 Ethylene Oxide End-Capped Butyl Ether [Oleyl 20E Bu Ether] | 68.8 | 76.1 | 78.1 | 59.3 | 71 | 27.5 | 19.5 | 16.5 | 21.4 | 21.2 | mean percentage disease control (Puccinia recondita; Azoxystrobin 0 mgai/l): 5.9%; mean percentage disease control (Puccinia recondita; Azoxystrobin 0.625 mgai/l (Quadris 25 SC)): 66.5%; mean percentage disease control (Puccinia recondita; Azoxystrobin 1.25 mgai/l (Quadris 25 SC)): 82.7%; mean percentage disease control (Puccinia recondita; Azoxystrobin 2.5 mgai/l (Quadris 25 SC)): 90.5%
Oleyl 20 Propylene Oxide [Oleyl 20 PO] | 36.3 | 70.6 | 80.4 | 53.3 | 60 |  |  |  |  |  | 
Oleic Acid 20 Ethylene Oxide End-Capped Methyl Ether [Oleyl 20 EO Me ether] | 54.9 | 72.3 | 74.6 | 52.1 | 63 |  |  |  |  |  | 
Oleic Acid 10 Ethylene Oxide End-Capped Methyl Ether [Oleic 10E Me Ether] | 56.2 | 71.3 | 78.4 | 56.1 | 66 | 34.8 | 16.7 | 15.8 | 28.4 | 23.9 | 
Oleyl 10 Propylene Oxide End-Capped butyl ether [Oleyl 10P Bu Ether] | 54.4 | 71.4 | 84.2 | 45.8 | 64 | 34.9 | 19.8 | 16.7 | 29.2 | 25.2 | 
